Assay results published in patent US20110171279A1, “POLYETHYLENIMINE BIOCIDES” (NDSU RESEARCH FOUNDATION, priority 2009, published 2011).
Converted amounts (≈) assume the structure as drawn. Where two headings read alike, the source gives them in different places.

Tests used:
Assay type in all cases: cell-based
[1] = test system: Cellulophaga lytica; experiment: Growth reduction / MIC test against Cellulophaga lytica; conditions: for MIC: Cellulophaga lytica; for Percent reduction in growth of Cellulophaga lytica: Table 5
Procedure: (§1) The antimicrobial properties of the Formulations were determined by measuring the minimum inhibitory concentration (MIC) or by using an adaptation of the MIC test. […] Additional details of the MIC method can be found at Andrews, J. M., Journal of Antimicrobial Chemotherapy (2001) 48, 5-16, incorporated herein by reference in its entirety.
(§2) In accordance with the MIC test, working solutions for each Formulation were prepared by dissolving 100 mg of each Formulation in 10 mL of methanol (Sigma-Aldrich) to generate a 10 mg/mL solution. Next, 10 ml of Guillard's F/2 medium was spiked with 200 μL of the 10 mg/mL Formulation solution to achieve a final concentration of 0.2 mg/mL.
(§3) 0.2 mL of each concentration of each Formulation (spiked with C. lytica) was added in triplicate to a 96-well plate. Additionally, 0.2 mL of Guillard's F/2 medium without any C. lytica or Formulation and 0.2 mL of Guillard's F/2 medium with C. lytica, but no Formulations, served as negative and positive growth controls, respectively. The 96-well plates were placed in an illuminated growth cabinet with a 16:8 light:dark cycle (photon flux density 33 μmol m^−2 s^−1) for 48 hrs at 18° C. and measured for chlorophyll fluorescence using a multi-well plate spectrophotometer (excitation: 360 nm; emission: 670 nm). The efficacy of each Formulation was measured by determining the percent reduction in diatom growth as a function of Formulation concentration.
(§4) The antimicrobial activity of Formulations 10-12, also derived from ETCS and PEI, was determined toward a suite of marine microorganisms, namely, Pseudoalteromonas atlantica, Cellulophaga lytica, Cobetia marina, and Halomonas pacifica. The antimicrobial activity of Formulations 10-12 was determined toward these marine microorganisms according to the methods of EXAMPLES 5-7. The MIC for each Formulation against each strain is compared to that of the PEI, ETCS, and TCS (alone) in Table 7.

[2] = test system: Navicula incerta; experiment: Growth reduction / MIC test against Navicula incerta in Guillard's F/2 medium, chlorophyll fluorescence; conditions: for Percent reduction in growth of Navicula incerta: Table 4
Procedure: as §1, §2
as §3, with “N. incerta)” for “C. lytica)”, “N. incerta” for “C. lytica”, “N. incerta,” for “C. lytica,”

[3] = test system: Pseudoalteromonas atlantica; experiment: MIC test against Pseudoalteromonas atlantica
Procedure: as §1, §4

[4] = test system: Escherichia coli; experiment: Growth reduction / MIC test against Escherichia coli in Luria-Bertani broth, absorbance 600 nm; conditions: for MIC: Escherichia coli, read-out: E. Coli MIC; for Percent reduction in growth of Escherichia coli: Table 3
Procedure: as §1
In accordance with the MIC test, working solutions for each Formulation were prepared by dissolving 100 mg of each Formulation in 10 mL of methanol (Sigma-Aldrich) to generate a 10 mg/mL solution. Next, 10 ml of Luria-Bertani broth was spiked with 200 μL of the mg/mL Formulation solution to achieve a final concentration of 0.2 mg/mL.
0.2 mL of each concentration of each Formulation (spiked with E. coli) was added in triplicate to a 96-well plate. Additionally, 0.2 mL of Luria-Bertani broth without any E. coli or Formulation and 0.2 mL of Luria-Bertani broth with E. coli, but no Formulations, served as negative and positive growth controls, respectively. Plates were then placed in an incubator, at 37° C. for 24 hrs (with shaking), and then measured for growth by taking absorbance measurements at 600 nm with a multi-well plate spectrophotometer (Synergy HT). The efficacy of each Formulation was measured by determining the percent reduction in bacterial growth as a function of Formulation concentration.
Next, the antimicrobial activity of Formulations 69-77 and Reference 1 toward E. coli was measured by determining the percent reduction in bacterial growth as a function of concentration. The results for the examples were compared to various PEIs used to produce the examples.

[5] = Formulation Concentration 0.78125 μg/mL
[6] = Formulation Concentration 1.5625 μg/mL
[7] = Formulation Concentration 3.125 μg/mL
[8] = Formulation Concentration 6.25 μg/mL
[9] = Formulation Concentration 12.5 μg/mL
[10] = Formulation Concentration 25 μg/mL
[11] = Formulation Concentration 50 μg/mL
[12] = Formulation Concentration 100 μg/mL

Row | SMILES | Percent reduction in growth of Cellulophaga lytica [1, 5] | Percent reduction in growth of Cellulophaga lytica [1, 6] | Percent reduction in growth of Cellulophaga lytica [1, 7] | Percent reduction in growth of Cellulophaga lytica [1, 8] | Percent reduction in growth of Cellulophaga lytica [1, 9] | Percent reduction in growth of Cellulophaga lytica [1, 10] | Percent reduction in growth of Cellulophaga lytica [1, 11] | Percent reduction in growth of Cellulophaga lytica [1, 12] | Percent reduction in growth of Navicula incerta [2, 5] | Percent reduction in growth of Navicula incerta [2, 6] | Percent reduction in growth of Navicula incerta [2, 7] | Percent reduction in growth of Navicula incerta [2, 8] | Percent reduction in growth of Navicula incerta [2, 9] | Percent reduction in growth of Navicula incerta [2, 10] | Percent reduction in growth of Navicula incerta [2, 11] | Percent reduction in growth of Navicula incerta [2, 12] | Percent reduction in growth of Escherichia coli [4, 5] | Percent reduction in growth of Escherichia coli [4, 6] | Percent reduction in growth of Escherichia coli [4, 7] | Percent reduction in growth of Escherichia coli [4, 8] | other results
1 | Oc1cc(Cl)ccc1Oc1ccc(Cl)cc1Cl [TCS, triclosan] | 12.29% | 32.40% | 59.78% | 86.87% | 86.87% | 87.15% | 87.15% | 86.59% | 14.26% | 22.00% | 84.51% | 91.29% | 94.57% | 93.55% | 94.21% | 94.95% | 14.66% | 52.34% | 93.43% | 93.93% | MIC ([1]; read-out: C. lytica MIC, Table 7): 6.25 to 12.5 µg/mL (≈ 21.6 to 43.2 µM); MIC ([1]; read-out: C. lytica MIC, Table 12): 12.5 µg/mL (≈ 43.2 µM); MIC ([2]; read-out: N. incerta MIC): 3.12 µg/mL (≈ 10.8 µM); MIC ([3]; read-out: P. atlantica MIC): 50 µg/mL (≈ 173 µM); MIC [4]: 0.781 µg/mL; Percent reduction in growth of Escherichia coli [4, 9]: 93.43%; Percent reduction in growth of Escherichia coli [4, 10]: 93.93%; Percent reduction in growth of Escherichia coli [4, 11]: 93.93%; Percent reduction in growth of Escherichia coli [4, 12]: 93.93%
2 | Clc1ccc(Oc2ccc(Cl)cc2OCC2CO2)c(Cl)c1 (stereo not drawn) [ETCS, 2-((5-chloro-2-(2,4-dichlorophenoxy)phenoxy)methyl)oxirane] | 0.00% | 5.92% | 10.06% | 11.24% | 33.73% | 57.40% | 69.23% | 14.20% | 0.00% | 0.00% | 0.00% | 0.00% | 34.14% | 89.92% | 91.40% | 93.37% | 0.00% | 0.00% | 0.00% | 0.00% | MIC ([1]; Table 7, read-out: C. lytica MIC): > 100 µg/mL; C. lytica MIC ([1]; Table 12): >100 µg/mL; MIC ([3]; Table 7, read-out: P. atlantica MIC): > 100 µg/mL; MIC ([4]; Table 12): > 100 µg/mL; Percent reduction in growth of Escherichia coli [4, 9]: 0.00%; Percent reduction in growth of Escherichia coli [4, 10]: 0.00%; Percent reduction in growth of Escherichia coli [4, 11]: 0.00%; Percent reduction in growth of Escherichia coli [4, 12]: 0.26%
